Experimental data taken from patent US11945822B2, “Pyrazolo-triazine and/or pyrazolo-pxrimidine derivatives as selective inhibitor of cyclin dependent kinase” (QURIENT CO., LTD., priority 2018, dated 2024).
Read-outs that look alike come from different tables or passages of the source.

How the values were obtained:
[1] = molecular target: T1, CDK5/p25 (Homo sapiens, UniProt Q00535); test: Enzymatic assay for CDK5 (FRET based LANCE Ultra kinase assay); assay type: biochemical
T1 construct: purchased Invitrogen PR8543B
T1 sequence (Q00535 whole entry): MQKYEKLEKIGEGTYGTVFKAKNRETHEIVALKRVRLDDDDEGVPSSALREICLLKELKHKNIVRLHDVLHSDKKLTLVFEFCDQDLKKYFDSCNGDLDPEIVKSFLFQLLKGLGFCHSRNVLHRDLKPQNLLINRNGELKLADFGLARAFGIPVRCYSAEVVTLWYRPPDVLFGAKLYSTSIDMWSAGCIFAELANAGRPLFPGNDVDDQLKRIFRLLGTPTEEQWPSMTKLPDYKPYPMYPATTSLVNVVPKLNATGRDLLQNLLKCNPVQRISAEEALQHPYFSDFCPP
T1 sequence (Q15078 99-307 partner limits assumed): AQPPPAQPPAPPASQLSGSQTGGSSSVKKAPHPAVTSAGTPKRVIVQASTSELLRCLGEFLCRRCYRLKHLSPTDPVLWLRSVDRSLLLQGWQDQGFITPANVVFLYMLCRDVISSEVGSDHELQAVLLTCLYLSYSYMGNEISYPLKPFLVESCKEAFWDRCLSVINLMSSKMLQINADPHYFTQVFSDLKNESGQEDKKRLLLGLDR
How it was run: (§1)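 LANCE Ultra TR-FRET: ULight-MBP peptide (68 nM) with ATP at Km, […], 60 min at 23° C. EDTA plus Eu-anti-phospho-MBP added, another 60 min, then 665/615 nm emission read. Compounds tested as 8-dose 4-fold DMSO dilutions.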

[2] = tested on: MV4-11; test: Cellular MV4-11 viability assay (CellTiter-Glo, 72 hours); assay type: cell-based; settings: Homo sapiens
How it was run: (§2)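 Cells plated in 96 wells and exposed to compound 72 h at 37 °C, 5% CO2, final DMSO below 0.1%, DMSO control. Viability by CellTiter-Glo luminescence, duplicate.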

[3] = tested on: HCT116; test: Cellular HCT116 viability assay (CellTiter-Glo, 72 hours); assay type: cell-based; settings: Homo sapiens, HCT-116
How it was run: as §2

[4] = molecular target: T2, CDK2/Cyclin A (Homo sapiens, UniProt P24941); test: Enzymatic assay for CDK2 (FRET based LANCE Ultra kinase assay); assay type: biochemical
T2 construct: purchased Invitrogen PV6290
How it was run: as §1

[5] = tested on: H460; test: Cellular H460 viability assay (CellTiter-Glo, 72 hours); assay type: cell-based; settings: Homo sapiens, NCI-H460
How it was run: as §2

[6] = molecular target: T3, CDK7/Cyclin H/MNAT1 (Homo sapiens, UniProt P50613); test: Enzymatic assay for CDK7 (FRET based LANCE Ultra kinase assay); assay type: biochemical
T3 construct: purchased Invitrogen PR6749B
T3 sequence (P50613 whole entry): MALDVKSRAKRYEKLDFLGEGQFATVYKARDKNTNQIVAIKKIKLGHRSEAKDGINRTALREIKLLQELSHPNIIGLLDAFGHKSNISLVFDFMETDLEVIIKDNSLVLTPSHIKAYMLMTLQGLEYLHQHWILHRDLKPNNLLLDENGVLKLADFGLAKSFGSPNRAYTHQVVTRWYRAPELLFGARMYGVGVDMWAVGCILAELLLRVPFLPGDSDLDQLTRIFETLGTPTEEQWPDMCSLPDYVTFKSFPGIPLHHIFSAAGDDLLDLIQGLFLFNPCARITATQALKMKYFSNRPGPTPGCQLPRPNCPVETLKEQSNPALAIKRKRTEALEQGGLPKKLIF
T3 sequence (P51946 whole entry partner): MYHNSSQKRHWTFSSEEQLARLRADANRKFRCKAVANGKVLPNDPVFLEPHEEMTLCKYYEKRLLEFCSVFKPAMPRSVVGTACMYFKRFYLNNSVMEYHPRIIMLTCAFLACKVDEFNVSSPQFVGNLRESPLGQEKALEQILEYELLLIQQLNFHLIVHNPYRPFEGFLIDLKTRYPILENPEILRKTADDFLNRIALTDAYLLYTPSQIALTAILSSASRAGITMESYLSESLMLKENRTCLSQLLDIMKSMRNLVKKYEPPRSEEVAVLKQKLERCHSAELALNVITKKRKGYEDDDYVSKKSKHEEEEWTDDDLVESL
T3 sequence (P51948 whole entry partner): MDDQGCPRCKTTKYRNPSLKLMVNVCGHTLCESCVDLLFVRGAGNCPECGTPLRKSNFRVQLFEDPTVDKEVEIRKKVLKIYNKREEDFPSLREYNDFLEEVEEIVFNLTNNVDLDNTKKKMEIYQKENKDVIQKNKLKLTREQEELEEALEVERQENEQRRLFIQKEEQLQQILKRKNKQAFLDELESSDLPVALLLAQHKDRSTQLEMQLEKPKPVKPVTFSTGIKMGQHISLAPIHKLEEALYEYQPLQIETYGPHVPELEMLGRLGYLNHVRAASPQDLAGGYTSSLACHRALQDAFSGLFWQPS
How it was run: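 LANCE Ultra TR-FRET kinase assay using a ULight-labeled peptide substrate and a Eu-labeled anti-phospho antibody, with ATP at its Km. Purified CDK/cyclin complex was added to compound after brief centrifugation.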

[7] = molecular target: T4, CDK1/Cyclin B (Homo sapiens, UniProt P06493); test: Enzymatic assay for CDK1 (FRET based LANCE Ultra kinase assay); assay type: biochemical
T4 construct: purchased Invitrogen PR4768C
T4 sequence (P06493 whole entry): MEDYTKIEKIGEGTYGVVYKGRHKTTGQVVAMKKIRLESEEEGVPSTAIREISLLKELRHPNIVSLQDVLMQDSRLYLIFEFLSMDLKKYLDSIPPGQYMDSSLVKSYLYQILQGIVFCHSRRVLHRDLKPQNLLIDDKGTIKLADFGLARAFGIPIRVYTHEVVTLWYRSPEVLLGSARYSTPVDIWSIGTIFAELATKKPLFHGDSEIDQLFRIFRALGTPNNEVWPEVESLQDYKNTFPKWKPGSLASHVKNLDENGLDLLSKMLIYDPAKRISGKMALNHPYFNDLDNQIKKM
T4 sequence (P14635 whole entry partner): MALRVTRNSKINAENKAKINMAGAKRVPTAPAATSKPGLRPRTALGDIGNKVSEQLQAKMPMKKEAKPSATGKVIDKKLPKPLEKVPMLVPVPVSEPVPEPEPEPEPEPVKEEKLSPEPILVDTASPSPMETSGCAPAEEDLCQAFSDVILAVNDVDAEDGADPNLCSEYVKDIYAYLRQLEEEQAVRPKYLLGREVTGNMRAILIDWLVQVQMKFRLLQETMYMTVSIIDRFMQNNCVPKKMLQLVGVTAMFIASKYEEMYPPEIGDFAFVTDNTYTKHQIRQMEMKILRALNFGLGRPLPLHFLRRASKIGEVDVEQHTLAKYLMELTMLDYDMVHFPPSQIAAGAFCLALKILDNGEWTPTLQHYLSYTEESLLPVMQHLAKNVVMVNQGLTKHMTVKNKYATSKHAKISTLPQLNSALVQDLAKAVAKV
How it was run: as §1

[8] = tested on: A2780; test: Cellular A2780 viability assay (CellTiter-Glo, 72 hours); assay type: cell-based; settings: Homo sapiens
From the text: Human T-cell acute lymphoblastic leukemia cell line, MOLT-4 (ATCC, Cat #CRL-1582), Human multiple myeloma cell line, RPMI-8226 (Invitrogen, Cat #22400-089) and MM.1S (ATCC, Cat #CRL-2974), NSCLC (Non-small cell lung cancer) cell line H460 (ATCC, Cat #HTB-177), Human colon colorectal carcinoma cell line HCT116 (ATCC, Cat #CCL-247), Human acute monocytic leukemia cell line MV4-11 (ATCC, Cat #CRL-9591), OVCAR-3 (ATCC, Cat #HTB-161) and A2780 (ECACC, Cat #93112519) were obtained from ATCC. Cells were grown in RPMI-1640 media (Invitrogen, Cat #22400-089) supplemented with 10% FBS (Invitrogen, Cat #10099141) and 1% penicillin/streptomycin (Invitrogen, Cat #15070063) and cultured at 37° C., 5% CO2 in a humidified chamber. All cell lines were routinely tested for mycoplasma.
The effect of the CDK7 inhibitor to inhibit the growth of target cancer cells was evaluated through the 72 hours time period of viability assay. Briefly, the candidate cell line ware plated in 96 well plate at the following density of cells respectively. 1×10^4 cells/well for MOLT-4, RPMI-8226, MV4-11 and MM.1S, 5×10^3 for H460, HCT116 and OVCAR-3 and IX 10^3 for A2780. After 24 hours, the cells were treated with various concentrations of the compound (ranging from 0.0015 uM to 10 uM). DMSO solvent without compound served as a control and final DMSO concentration less than 0.1%. After 72 hours of incubation at 37° C., 5% CO2 incubator, cells were analyzed for the viability using the CellTiter-Glo Luminescent Cell Viability Assay (Promega, Cat #G7570). All viability assays were performed in duplicate and Luminescence was read using an Envision (Perkin Elmer, USA). Data was analyzed using XLfit software.

[9] = read-out: CDK5 enzymatic activity (IC50 range)
[10] = read-out: CDK2 enzymatic activity (IC50 range)
[11] = read-out: CDK7 enzymatic activity (IC50 range)
[12] = read-out: CDK1 enzymatic activity (IC50 range)
[13] = read-out: CDK5 enzymatic activity (IC50 activity range)
[14] = read-out: CDK2 enzymatic activity (IC50 activity range)
[15] = read-out: CDK7 enzymatic activity (IC50 activity range)
[16] = read-out: CDK1 enzymatic activity (IC50 activity range)

SMILES | IC50 [1, 9] [nM] | IC50 [2] [µM] | IC50 [3] [nM] | IC50 [4, 10] [nM] | IC50 [5] [nM] | CDK1/CDK7: Selectivity of CDK7 inhibition over CDK1 inhibition ([6]; CDK7 over CDK1) | CDK2/CDK7: Selectivity of CDK7 inhibition over CDK2 inhibition ([6]; CDK7 over CDK2) | CDK5/CDK7: Selectivity of CDK7 inhibition over CDK5 inhibition ([6]; CDK7 over CDK5) | IC50 [6, 11] [nM] | IC50 [7, 12] [nM] | IC50 [8] [nM] | IC50 [1, 13] [nM] | IC50 [4, 14] [nM] | CDK1/CDK7: Selectivity of CDK7 inhibition over CDK1 inhibition ([6]; CDK1/CDK7) | IC50 [6, 15] [nM] | IC50 [7, 16] [nM] | CDK2/CDK7: Selectivity of CDK7 inhibition over CDK2 inhibition ([6]; CDK2/CDK7) | CDK5/CDK7: Selectivity of CDK7 inhibition over CDK5 inhibition ([6]; CDK5/CDK7)
CC(C)c1cnn2c(NCc3ccccc3-c3ccc4ccccc4n3)nc(NCCC(O)CN)nc12 (racemic) [Compound 234] | > 1000 | < 1 | < 1000 | > 1000 | < 1000 | A (A=greater than 200 fold) | A (A=greater than 200 fold) | A (A=greater than 200 fold) | < 100 | > 1000 | ≤ 1000 | – | – | – | – | – | – | –
Cc1cccc(-n2ccc(C(C)(C)O)n2)c1CNc1nc(N2CCC(N)CC2)nc2c(C(C)C)cnn12 [Compound 230] | > 1000 | < 1 | < 1000 | > 1000 | < 1000 | A (A=greater than 200 fold) | A (A=greater than 200 fold) | A (A=greater than 200 fold) | < 100 | > 1000 | ≤ 1000 | – | – | – | – | – | – | –
Cc1cccc(-c2cc(C(C)(C)O)nn2C)c1CNc1nc(N2CCC(N)CC2)nc2c(C(C)C)cnn12 [Compound 231] | > 1000 | < 1 | < 1000 | > 1000 | < 1000 | A (A=greater than 200 fold) | A (A=greater than 200 fold) | A (A=greater than 200 fold) | < 100 | > 1000 | ≤ 1000 | – | – | – | – | – | – | –
CC(C)c1cnn2c(NCc3c(Cl)cccc3-c3ccc4ccccc4n3)nc(N3CCCC[C@H]3CCO)nc12 [Compound 262] | – | > 10 | – | – | > 10000 | – | – | – | – | – | > 10000 | > 1000 | > 1000 | B (B=less than 200 fold, but greater than 20 fold) | 100 to 1000 | > 1000 | B (B=less than 200 fold, but greater than 20 fold) | B (B=less than 200 fold, but greater than 20 fold)
CC(C)c1cnn2c(NCc3ccccc3-c3ccc4ccccc4n3)nc(N3CCCC[C@H]3CO)nc12 [Compound 263] | – | > 10 | – | – | > 10000 | – | – | – | – | – | > 10000 | > 1000 | > 1000 | B (B=less than 200 fold, but greater than 20 fold) | 100 to 1000 | > 1000 | B (B=less than 200 fold, but greater than 20 fold) | B (B=less than 200 fold, but greater than 20 fold)
CC(C)c1cnn2c(NCc3c(Cl)cccc3-c3ccc4ccccc4n3)nc(N3CCCC[C@H]3CO)nc12 [Compound 264] | – | > 10 | – | – | > 10000 | – | – | – | – | – | > 10000 | > 1000 | > 1000 | B (B=less than 200 fold, but greater than 20 fold) | 100 to 1000 | > 1000 | B (B=less than 200 fold, but greater than 20 fold) | B (B=less than 200 fold, but greater than 20 fold)
CC(C)c1cnn2c(NCc3ccccc3-c3ccc4ccccc4n3)nc(NCC3CCOCC3)nc12 [Compound 267] | – | > 10 | – | – | 1000 to 10000 | – | – | – | – | – | 1000 to 10000 | > 1000 | > 1000 | B (B=less than 200 fold, but greater than 20 fold) | 100 to 1000 | > 1000 | B (B=less than 200 fold, but greater than 20 fold) | B (B=less than 200 fold, but greater than 20 fold)

Now from value to molecule, other results behind:

IC50 [1, 9] [nM] | IC50 [2] [µM] | IC50 [3] [nM] | IC50 [4, 10] [nM] | IC50 [5] [nM] | CDK1/CDK7: Selectivity of CDK7 inhibition over CDK1 inhibition ([6]; CDK7 over CDK1) | CDK2/CDK7: Selectivity of CDK7 inhibition over CDK2 inhibition ([6]; CDK7 over CDK2) | CDK5/CDK7: Selectivity of CDK7 inhibition over CDK5 inhibition ([6]; CDK7 over CDK5) | IC50 [6, 11] [nM] | IC50 [7, 12] [nM] | IC50 [8] [nM] | IC50 [1, 13] [nM] | IC50 [4, 14] [nM] | CDK1/CDK7: Selectivity of CDK7 inhibition over CDK1 inhibition ([6]; CDK1/CDK7) | IC50 [6, 15] [nM] | IC50 [7, 16] [nM] | SMILES | CDK2/CDK7: Selectivity of CDK7 inhibition over CDK2 inhibition ([6]; CDK2/CDK7) | CDK5/CDK7: Selectivity of CDK7 inhibition over CDK5 inhibition ([6]; CDK5/CDK7)
– | > 10 | – | – | < 1000 | – | – | – | – | – | 1000 to 10000 | > 1000 | > 1000 | A (A=greater than 200 fold) | < 100 | > 1000 | CC(C)c1cnn2c(NCc3ccccc3-c3ccc4ccccc4n3)nc(N3CCOCC3)nc12 [Compound 268] | A (A=greater than 200 fold) | A (A=greater than 200 fold)
– | 1 to 10 | – | – | < 1000 | – | – | – | – | – | ≤ 1000 | > 1000 | > 1000 | A (A=greater than 200 fold) | < 100 | > 1000 | CC(C)c1cnn2c(NCc3ccccc3-c3ccc4ccccc4n3)nc(OC3CCC(O)CC3)nc12 (stereo not shown) [Compound 269] | A (A=greater than 200 fold) | A (A=greater than 200 fold)
– | 1 to 10 | – | – | 1000 to 10000 | – | – | – | – | – | 1000 to 10000 | > 1000 | > 1000 | A (A=greater than 200 fold) | < 100 | > 1000 | CC(C)c1cnn2c(NCc3ccccc3-c3ccc4ccccc4n3)nc(NC3CCC(O)CC3)nc12 (stereo not shown) [Compound 270] | A (A=greater than 200 fold) | A (A=greater than 200 fold)
– | 1 to 10 | – | – | 1000 to 10000 | – | – | – | – | – | 1000 to 10000 | > 1000 | > 1000 | A (A=greater than 200 fold) | < 100 | > 1000 | CC(C)c1cnn2c(NCc3ccccc3-c3ccc4ccccc4n3)nc(O[C@H]3CC[C@@H](O)CC3)nc12 [Compound 272] | A (A=greater than 200 fold) | A (A=greater than 200 fold)
– | 1 to 10 | – | – | 1000 to 10000 | – | – | – | – | – | 1000 to 10000 | > 1000 | > 1000 | A (A=greater than 200 fold) | < 100 | > 1000 | CC(C)c1cnn2c(NCc3ccccc3-c3ccc4ccccc4n3)nc(O[C@H]3CC[C@H](O)CC3)nc12 [Compound 273] | A (A=greater than 200 fold) | A (A=greater than 200 fold)
– | 1 to 10 | – | – | 1000 to 10000 | – | – | – | – | – | 1000 to 10000 | > 1000 | > 1000 | A (A=greater than 200 fold) | < 100 | > 1000 | CC(C)c1cnn2c(NCc3ccccc3-n3cccn3)nc(N3CCc4ncccc4C3)nc12 [Compound 275] | B (B=less than 200 fold, but greater than 20 fold) | B (B=less than 200 fold, but greater than 20 fold)
